Read-outs that look alike come from different tables or passages of the source.
Experiments:
[1] = tested on: HT-1080 cells carrying NRAS, CDKN2A and IDH1 gene mutations; experiment: Mouse model of human fibrosarcoma (cell line HT-1080), subcutaneous tumors: tumor growth; format: in vivo; settings: for Median tumor volume: day 13; for TGI: day 1 to day 13, from median tumor volumes; for Tumor shrinkage [X/7]: number of animals of 7 with tumor shrinkage
Procedure: • 1. Materials and Method: • 1.1. Design of Research • Treatment began when the median tumor volume was between 70-130 mm^3. • 10 mice in the control group, and 7 mice in the treatment group. • Oral gavage once daily. • Control: 0.5% hydroxyethyl cellulose • BI 853520: 50 mg/kg, 25 mg/kg, 12.5 mg/kg, 6 mg/kg, • Tumor volume was measured 3 times a week and body weight was monitored daily. • Evaluation of treatment outcome was based on absolute volume of individual tumors. • Tolerability was assessed based on changes in body weight.
BI853520: synthesized according to the method in the patent WO2010058032. The dry powder was suspended in 0.5% hydroxyethyl cellulose to obtain the desired concentration for each assay. The pH of this formulation was 3.5.
HT-1080 cells: HT-1080 cells carrying NRAS, CDKN2A and IDH1 gene mutations were obtained from ATCC (CRL-121). Cells were grown in T175 tissue culture flasks with DMEM+Glutamax supplemented with 10% heat-inactivated fetal bovine serum as medium. Cells were cultured at 37° C. and 5% CO2 in humidified air.
Mice: Athymic female BomTac, approximately 6-week-old NMRI-Foxn1^nu mice were purchased from Taconic, Denmark. After arriving in the animal room, mice were acclimated to the new environment for at least 3 days before being used for assay. The animals were housed under standard conditions (temperature 21.5±1.5° C. and 55±10% humidity) with 5 mice in each group. A standard diet and autoclaved tap water were provided for ad libitum feeding. A Datamars® T-IS 8010 FDX-B transponder implanted subcutaneously in the neck region and a LabMax® II fixed reader were used to identify each mouse.
To establish subcutaneous tumors, HT-1080 cells were harvested by trypsinization, centrifuged, washed and suspended in ice-cold PBS+1×10^8 cells/ml. Then 100 μl of cell suspension containing 1×10^7 cells was injected subcutaneously into the right flank of nude mice (1 site per mouse). When tumors were established and reached a diameter of 5-8 mm (7 days after cell injection), mice were randomly assigned to the treatment group and the control group.
BI853520 was suspended in 0.5% hydroxyethyl cellulose, which was administered intragastrically through gavage needle every day, and the dosage was 10 mL/Kg.
Tumor diameters were measured with calipers three times a week (Monday, Wednesday, and Friday). The volume of each tumor [in mm^3] was calculated according to the equation, “tumor volume=length×diameter^2×π/6”. To monitor the side effects of the treatment, the mice were checked daily for abnormalities and their body weights were measured daily. Animals were sacrificed at the end of the study (approximately two weeks after the start of treatment). During the study, animals with tumor necrosis or tumors larger than 2000 mm^3 were sacrificed ahead of schedule for ethical reasons.
At the end of the assay on day 13, statistical evaluation of tumor volume and body weight parameters was performed. Absolute tumor volume and percent change in body weight (referenced to initial weight on day 1) were used. A nonparametric approach was used, and the number of observations, median, minimum and maximum values were calculated. For a quick overview of possible treatment effects, the median tumor volume for each treatment group T and the median tumor volume for the control group C were used to calculate the TGI from day 1 to day d: TGI=100×[(Cd−C1)−(Td−T1)]/(Cd−C1) • wherein, C1, T1=median tumor volume in control and treatment groups at the start of the assay (day 1). • Cd, Td=median tumor volume in control and treatment groups at the end of the assay (day 13).
Each dose of test compound was compared to the control group using a one-sided descending wilcoxon test, taking reduction in tumor volume as a treatment effect and weight loss as a side effect. […]

[2] = tested on: Ba/F3-NRAS^G12D cell line; experiment: Antiproliferative test (CellTiter Glo, 48 hours) in NRAS^G12D-transfected Ba/F3 cells; format: cell-based, murine; settings: for IC50: Mus musculus
Procedure: The Ba/F3 cell line was obtained from ATCC in 2009, and cultured according to a method described in Zhang X Ren R. Bcr-abl efficiently induces a myeloproliferative disease and production of excess interleukin-3 and granulocyte-macrophage colony-stimulating factor in mice: A novel model for chronic myelogenous leukemia. Blood., 1998, 92: 3829-40. Growth factor-dependent BA/F3 cells were cultured in RPMI 1640 including 10% FBS and supplemented with 15% WEHI-3 conditioned medium or recombinant IL-3 (Roche) as a source of IL-3 at a final concentration of 1 ng/ml. […] Cancer Res., 2007, 67: 7139-46 and Fredericks J, Ren R. The role of RAS effectors in BCRIABL induced chronic myelogenous leukemia. Front Med China., 2013, 7: 452-61. Upon receipt of the original stock, cells were expanded and frozen at a low passage rate (<3). Frozen cells were thawed and used in this study, with cell passages limited to 15 for all experimental procedures. All cells were tested regularly to ensure freedom and maintenance in a normal state of mycoplasma.
NRAS^G12D-transfected Ba/F3 (Ba/F3-N) or KRAS^G12D-transfected Ba/F3 ([…]) cells were seeded into 96-well cell culture cluster plate in 100 μL of medium at a density of 5,000 cells per well. BI853520 was diluted 3-fold with RPMI 1640 at 9 points, and added according to the volume of each well, starting at 10 μmol/L to reach a 3-fold concentration gradient (final solvent concentration <1/1000). PD0325901 was used as a positive control. After 48 hours of incubation, cell viability was measured using CellTiter Glo (Promega). Luminescence was detected using an Envision plate reader (PerkinElmer). The calculation method of Z factor was as described in Zhang J H, Chung T D Y, Oldenburg K R. A simple statistical parameter for use in evaluation and validation of high throughput screening assays. J Biomol Screen., 1999, 4: 67-73, and the following analysis only used data with Z factor >0.6. […]

COc1cc(C(=O)NC2CCN(C)CC2)c(F)cc1Nc1ncc(C(F)(F)F)c(Oc2cccc3c2C(=O)N(C)C3)n1 [BI853520]
Median tumor volume ([1]; 6 mg/kg qd oral gavage): 322 mm^3
TGI ([1]; 6 mg/kg qd): 70%
Tumor shrinkage [X/7] ([1]; 6 mg/kg qd): 1 X/7
Median tumor volume ([1]; 12.5 mg/kg qd oral gavage): 149 mm^3
TGI ([1]; 12.5 mg/kg qd): 94%
Tumor shrinkage [X/7] ([1]; 12.5 mg/kg qd): 2 X/7
Median tumor volume ([1]; 25 mg/kg qd oral gavage): 15 mm^3
TGI ([1]; 25 mg/kg qd): 113%
Tumor shrinkage [X/7] ([1]; 25 mg/kg qd): 6 X/7
TGI ([1]; 50 mg/kg qd): 107%
Antitumor activity (in words) ([1]; all dose levels (6 to 50 mg/kg qd)): statistically significant antitumor activity
Regression (in words) ([1]; all the treatment groups (6 to 50 mg/kg qd)): regression was observed
Increase of IC50 after addition of IL-3 ([2]; + IL-3 versus − IL-3): more than 4 fold
IC50 ([2]; BaF3, after addition of IL-3, 48 hours, read-out: IC50 (antiproliferative effect), + IL-3): 15 µM
IC50 ([2]; BaF3, without IL-3, 48 hours, read-out: IC50 (antiproliferative effect), − IL-3): 3.4 µM
